“Also recorded” adds a separate entry of the source.
Legend:
Propionibacterium acnes = experiment: Antibacterial activity of nanoparticles versus free fatty acid in aqueous system (PBS); assay type: cell-based
Text: (§1) The present inventors further tested the antibacterial activity of the nanoparticles of the present invention and free fatty acids in an aqueous system.

H. pylori = experiment: as above; assay type: cell-based, Helicobacter pylori; conditions: same concentration (0.3% w/v)
Text: as §1

| Structure (SMILES) | bactericidal effect on Propionibacterium acnes in aqueous system (Propionibacterium acnes) | bactericidal activity against H. pylori in aqueous system (H. pylori) |
| --- | --- | --- |
| CCCCCCCCCCCC(=O)O [free lauric acid, lauric acid] | almost no bactericidal effect |  |
| CCCC/C=C\CCCCCCCC(=O)O [free myristoleic acid, myristoleic acid] |  | does not exhibit activities against H. pylori; also recorded: did not show bactericidal activity |

From US11266604B2 (ALAYA (SHANGHAI) BIOSCIENCE CO., LTD, priority 2015, dated 2022)
